The record followed here is patent US4707497A, “Phenylethanolaminotetralines, a process for their preparation and pharmaceutical compositions containing them” (Sanofi, priority 1985, dated 1987).

Counter-ions that a name gives are not always drawn.

Data set [1] concerns adipocytes of the interscapular brown adipose tissue. Put plainly: Lipolytic activity in vitro on brown adipose tissue (BAT) adipocytes, release of free fatty acids. Conditions: Rattus norvegicus, Adipocyte; compound 10^-6 M; per cent of noradrenaline effect at 5.10^-6 M (maximal effect); 37° C., 1 hour, pH 7.4. It counts as cell-based. The source says:
(§1) More particularly, the compounds of the present invention show a remarkable lipolytic activity in mammals in the tests predictive of said activity, such as in the test "in vitro" on the brown adipose tissue (BAT) and on the white adipose tissue (WAT) and in the test "in vivo", based upon the thermogenesis in the rat. More particularly, in the test "in vitro" male rats, each weighing 100-125 g, are sacrificed and the adipocytes of the interscapular brown adipose tissue and those of the epididymal white adipose tissue are dissected out, according to the method of M. Rodbell, J. Biol. Chem. 1967, 242, 5744-5750 and separately treated as follows. The adipocytes are incubated with the compound to be tested at a temperature of 37° C. for an hour in Phosphate Krebs-Ringer-(4%) albumine medium at pH 7.4. The long chain fatty acids that are released in the medium are determinated by the method reported by D.I. Trout and al., J. Lip. Res. 1960, 1, 199-202, and compared with the amount of the triglycerides present in the adipocytes, determined by the method of E. Van Handel and al., J. Lab. Clin. Med., 1957, 50, 152-157. The results obtained for representative compounds of the present invention are shown in TABLE I, where the lipolytic activity of the compounds at the dose of 10^-6 M, measured as release of free fatty acids (μEq), is expressed as per cent of the noradrenaline effect at the dose of 5.10^-6 M (maximal effect on both BAT and WAT).

In data set [2] the test system is epididymal white adipose tissue adipocytes. Put plainly: Lipolytic activity in vitro on white adipose tissue (WAT) adipocytes, release of free fatty acids. It counts as cell-based. The settings on record: Rattus norvegicus, Adipocyte; compound 10^-6 M; per cent of noradrenaline effect at 5.10^-6 M (maximal effect); 37° C., 1 hour, pH 7.4.
Source text: as §1

The test system of data set [3] is mice. In words: Acute toxicity in mice. It counts as in vivo, mouse. Conditions: oral dose up to 200 mg/kg.
Data set [4] concerns interscapular BAT. In words: Activity on brown adipose tissue thermogenesis in vivo in anaesthetized rats. Conditions: 7.5 mg/kg intraperitoneally. Details: species or system rat. Here is the method:
In the test "in vivo", the activity on brown adipose tissue thermogenesis is determined by the method reported by P. J. Wellman, Research Communication in Chemical Pathology and Pharmacology 1983, 41, 173-176.
The anaesthesied rats are treated intraperitoneally with the vehicle and 7.5 mg/kg of the compound to be tested. The interscapular BAT and rectal temperatures are recorded 10, 20 and 30 minutes after the injection.

For the compound `Oc1ccc2c(c1)CC(NCC(O)c1ccccc1)CC2` (stereo not shown) [SR 58306A, 2-[(7-hydroxy-1,2,3,4-tetrahydronaphth-2-yl)amino]-1-phenylethanol hydrochloride], the activation at 1 µM in data set [1] came out at 80%; in data set [2] it was 78%.
Regarding `CCOC(=O)COc1ccc2c(c1)CC(NCC(O)c1cccc(Cl)c1)CC2.O=C(O)C(=O)O` (stereo not shown) [SR 58380A, 2-[(7-carbethoxymethoxy-1,2,3,4-tetrahydronaphth-2-yl)amino]-1-(3-chlorophenyl)ethanol oxalate], the activation at 1 µM in data set [1] came out at 96%; in data set [2], 90%. The mortality entry in data set [3] is recorded as “do not cause any mortality”.
For `Oc1ccc2c(c1)CC(NCC(O)c1ccccc1)CC2` (stereo not shown) [SR 58306, 2-[(7-hydroxy-1,2,3,4-tetrahydronaphth-2-yl)amino]-1-phenylethanol], the “ΔT, average difference between interscapular BAT temperature and rectal temperature” value in data set [4] (10' after injection, anaesthetized rats (vehicle 0.06 ± 0.04)) was 0.60 ± 0.10 °C; in data set [4] (20' after injection, anaesthetized rats (vehicle 0.10 ± 0.04)), 0.90 ± 0.10 °C; in data set [4] (30' after injection, anaesthetized rats (vehicle 0.14 ± 0.05)), 0.92 ± 0.08 °C.
On to `Oc1ccc2c(c1)CC(NC[C@H](O)c1ccccc1)CC2` (stereo partly drawn) [SR 58365A, (1R,2'RS)-2-[(7-hydroxy-1,2,3,4-tetrahydronaphth-2-yl)amino]-1-phenylethanol hydrochloride], for which the activation at 1 µM in data set [1] was found to be 96%; in data set [2], 78%.
`COc1ccc2c(c1)CC(NCC(O)c1cccc(Cl)c1)CC2` (stereo not shown) [SR 58338A, 2-[(7-methoxy-1,2,3,4-tetrahydronaphth-2-yl)amino]-1-(3-chloropheny)ethanol hydrochloride]: the activation at 1 µM in data set [1] was 77%; in data set [2] it was 89%.
In the case of `COc1ccc2c(c1)CC(NCC(O)c1ccccc1)CC2` (stereo not shown) [SR 58279A, 2-[(7-methoxy-1,2,3,4-tetrahydronaphth-2-yl)amino]-1-phenylethanol hydrochloride], the activation at 1 µM was 50% in data set [1] and 30% in data set [2].
Take `Oc1ccc2c(c1)CC(NC[C@H](O)c1ccccc1)CC2` (single isomer, unassigned; (+)) [SR 58375A, hydrochloride]: the values for the activation at 1 µM in data set [1] and in data set [2] were 100% and 97%, respectively.
Turning to `Cl.Oc1ccc2c(c1)CC(NCC(O)c1cccc(Cl)c1)CC2` (stereo not shown) [SR 58339A, 2-[(7-hydroxy-1,2,3,4-tetrahydronaphth-2-yl)amino]-1-(3-chlorophenyl)-ethanol hydrochloride], the activation at 1 µM in data set [1] was 103%; in data set [2] it was 92%. The mortality entry in data set [3] was “do not cause any mortality”.
